From the supplement of paper PMC10307832

How the values were obtained:
Experiment in all cases: relative viability (nuclei count vs DMSO), 5 days (fraction); higher = more cells survive
[1] = compound: Nc1ncn([C@H]2C[C@H](O)[C@@H](CO)O2)c(=O)n1 [Decitabine] + CC(=O)c1c(C)c2cnc(Nc3ccc(N4CCNCC4)cn3)nc2n(C2CCCC2)c1=O [Palbociclib] (partner 0.5 µM)
Procedure, shortened: (§1)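 Lung cancer cell lines in 1536-well plates got either a single drug or a fixed anchor-drug dose together with five library-drug doses (not always all listed) in √10 steps, by pin tool, on the day after seeding. Nuclei were counted after 5 days, and relative viability is the treated-to-vehicle ratio of nuclei counts. Values are medians of duplicate plates.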

[2] = compound: COc1cc2c(Oc3ccc4[nH]c(C)cc4c3F)ncnc2cc1OCCCN1CCCC1 [Cediranib] + Cc1nc(Nc2ncc(C(=O)Nc3c(C)cccc3Cl)s2)cc(N2CCN(CCO)CC2)n1 [Dasatinib] (partner 0.075 µM)
Procedure, shortened: as §1

[3] = compound: O=C(C[C@H]1NCCC[C@@H]1O)Cn1cnc2cc(Br)c(Cl)cc2c1=O (racemic) [Halofuginone] + CC(=O)c1c(C)c2cnc(Nc3ccc(N4CCNCC4)cn3)nc2n(C2CCCC2)c1=O [Palbociclib] (partner 0.5 µM)
Procedure, shortened: as §1

[4] = compound: O=C(C[C@H]1NCCC[C@@H]1O)Cn1cnc2cc(Br)c(Cl)cc2c1=O (racemic) [Halofuginone] + C[C@@H](Oc1cc(-c2cnn(C3CCNCC3)c2)cnc1N)c1c(Cl)ccc(F)c1Cl [Crizotinib] (partner 1 µM)
Procedure, shortened: as §1

Cell Line | relative viability ([1]; first compound 0.04 µM) | relative viability ([1]; first compound 0.1265 µM) | relative viability ([1]; first compound 0.4 µM) | relative viability ([1]; first compound 1.265 µM) | relative viability ([1]; first compound 4 µM) | relative viability ([2]; first compound 0.04 µM) | relative viability ([2]; first compound 0.1265 µM) | relative viability ([2]; first compound 0.4 µM) | relative viability ([2]; first compound 1.265 µM) | relative viability ([2]; first compound 4 µM) | relative viability ([3]; first compound 0.001 µM) | relative viability ([3]; first compound 0.003162 µM) | relative viability ([3]; first compound 0.01 µM) | relative viability ([3]; first compound 0.03162 µM) | relative viability ([3]; first compound 0.1 µM) | relative viability ([4]; first compound 0.001 µM) | relative viability ([4]; first compound 0.003162 µM) | relative viability ([4]; first compound 0.01 µM) | relative viability ([4]; first compound 0.03162 µM) | relative viability ([4]; first compound 0.1 µM)
NCI-H1993 | 0.646 | 0.589 | 0.645 | 0.503 | 0.583 | 0.567 | 0.702 | 0.537 | 0.434 | 0.649 | 0.626 | 0.519 | 0.637 | 0.617 | 0.454 | 1.05 | 0.921 | 0.95 | 0.89 | 0.588
NCI-H647 | 0.269 | 0.489 | 0.236 | 0.123 | 0.117 | 0.215 | 0.177 | 0.102 | 0.22 | 0.224 | 0.413 | 0.399 | 0.422 | 0.287 | 0.105 | 0.942 | 1.13 | 0.978 | 0.834 | 0.0795
NCI-H460 | 0.174 | 0.289 | 0.185 | 0.0847 | 0.0625 | 0.51 | 0.634 | 0.466 | 0.459 | 0.562 | 0.233 | 0.237 | 0.207 | 0.182 | 0.0284 | 1.05 | 1.06 | 0.866 | 0.409 | 0.0383
EMC-BAC-2 |  | 0.519 | 0.523 | 0.467 | 0.457 | 0.316 | 0.603 | 0.365 | 0.309 | 0.314 | 0.545 | 0.531 | 0.506 | 0.536 | 0.37 | 0.856 | 0.805 | 0.778 | 0.769 | 0.32
NCI-H23 | 0.413 | 0.372 | 0.295 | 0.28 | 0.271 | 0.729 |  | 0.7 | 0.375 | 1.07 | 0.694 | 0.501 | 0.479 | 0.562 | 0.331 | 0.582 | 0.724 | 0.486 | 0.609 | 0.218
A-427 | 0.451 | 0.466 | 0.378 | 0.431 | 0.381 | 0.683 |  | 0.672 | 0.596 | 0.919 | 0.526 | 0.538 | 0.534 | 0.49 | 0.479 | 0.941 | 0.911 | 0.795 | 0.807 | 0.764
ABC-1 |  | 0.805 | 0.794 | 0.57 | 0.551 | 0.536 | 0.651 | 0.448 | 0.474 | 0.457 | 0.551 | 0.606 | 0.739 | 0.475 | 0.61 | 1.09 | 1.08 | 0.954 | 1.26 | 1.15
NCI-H322M | 0.439 | 0.485 | 0.554 | 0.479 | 0.463 | 0.239 | 0.277 | 0.247 | 0.258 | 0.255 | 0.549 | 0.475 | 0.45 | 0.465 | 0.357 | 0.982 | 0.911 | 0.906 | 1.01 | 0.77
